From ChEMBL document CHEMBL5584231, “Rational design of a new short anticancer peptide with good potential for cancer treatment” (Eur J Med Chem, 2024)
Calls of active or inactive are those of the source. No cut-off for these calls is given here. Non-standard residues stand in square brackets, D forms with d. Residues, ends and D or L forms follow the SMILES beside them. Aad = N[C@@H](CCCC(=O)O)C(=O)O

What was measured:
[1] = Acute toxicity in female Balb/c mouse assessed as reduction in survival rate at 65 to 110 mg/kg, ip administered as single dose and measured for 7 days; format: organism-based; conditions: in vivo, 168 h, dose 65-110 mg/kg, time 7 day
[2] = tested on: MCF7; experiment: Induction of apoptosis in human MCF7 cells assessed as early apoptotic cells at 1 times IC50 measured after 24 hrs by Annexin V-FITC staining based flow cytometry analysis (reference value: 0.014%); format: functional
[3] = Acute toxicity in female Balb/c mouse assessed as reduction in survival rate at 50 mg/kg, ip administered as single dose and measured for 7 days; format: organism-based; conditions: in vivo, 168 h, time 7 day
[4] = tested on: Cell membrane; experiment: Induction of morphological changes in cell membrane of human MCF7 cells assessed as membrane damage at 1 times IC50 incubated for 1 hr by SEM analysis; format: cell membranes
[5] = Stability in mouse serum assessed as compound remaining at 10 mM incubated for 12 hrs by RP-HPLC analysis; format: ADME, cell-free; conditions: read-out: Stability
[6] = Acute toxicity in female Balb/c mouse assessed as lung damage at approximately LD50 administered as single ip dose by H and E staining based analysis; format: organism-based; conditions: in vivo
[7] = tested on: HeLa; experiment: Cytotoxicity against human HeLa cells assessed as inhibition of cell growth incubated for 1 hr by MTT assay; format: functional, cell-based
[8] = tested on: MCF7; experiment: Cytotoxicity against human MCF7 cells assessed as inhibition of cell growth incubated for 1 hr by MTT assay; format: functional, cell-based; conditions: MCF7, 1 h
[9] = Toxicity in female Balb/c mouse implanted with mouse 4T1 cells assessed as pathological changes in lung at 12 micromol/kg, ip administered every other day for 2 weeks by H and E staining based analysis; format: organism-based; conditions: in vivo, 336 h, dose 12 µmol/kg
[10] = tested on: MCF7; experiment: Induction of apoptosis in human MCF7 cells assessed as dead cells at 1 times IC50 measured after 24 hrs by Annexin V-FITC staining based flow cytometry analysis (reference value: 6.41%); format: functional
[11] = Stability in mouse serum assessed as half life at 10 mM incubated for 12 hrs by RP-HPLC analysis; format: ADME, cell-free
[12] = Toxicity in female Balb/c mouse implanted with mouse 4T1 cells assessed as pathological changes in liver at 12 micromol/kg, ip administered every other day for 2 weeks by H and E staining based analysis; format: organism-based; conditions: in vivo, 336 h, dose 12 µmol/kg
[13] = tested on: Cell membrane; experiment: Disruption of cell membrane integrity in human MCF7 cells assessed as increase in PI fluorescence measured after 1 hr by laser confocal scanning microscopic analysis; format: cell membranes
[14] = tested on: Cell membrane; experiment: Induction of cell membrane damage in human MCF7 cells assessed as nucleic acid leakage at 1 to 2 times IC50 measured after 0.5 to 6 hrs by UV based analysis; format: cell membranes; conditions: time 0.5-6 hrs
[15] = tested on: Cell membrane; experiment: Induction of morphological changes in cell membrane of human MCF7 cells assessed as cell depression at 1 times IC50 incubated for 1 hr by SEM analysis; format: cell membranes
[16] = Toxicity in female Balb/c mouse implanted with mouse 4T1 cells assessed as pathological changes in heart at 12 micromol/kg, ip administered every other day for 2 weeks by H and E staining based analysis; format: organism-based; conditions: in vivo, 336 h, dose 12 µmol/kg
[17] = Toxicity in female Balb/c mouse implanted with mouse 4T1 cells assessed as pathological changes in kidney at 12 micromol/kg, ip administered every other day for 2 weeks by H and E staining based analysis; format: organism-based; conditions: in vivo, 336 h, dose 12 µmol/kg
[18] = Acute toxicity in female Balb/c mouse assessed as necrosis in kidney at approximately LD50 administered as single ip dose by H and E staining based analysis; format: organism-based; conditions: in vivo
[19] = Acute toxicity in female Balb/c mouse assessed as reduction in survival rate at 37 to 55 mg/kg, ip administered as single dose and measured for 7 days; format: organism-based; conditions: in vivo, 168 h, dose 37-55 mg/kg, time 7 day
[20] = Acute toxicity in female Balb/c mouse assessed as reduction in survival rate at 37 mg/kg, ip administered as single dose and measured for 7 days; format: organism-based; conditions: in vivo, 168 h, time 7 day
[21] = Acute toxicity in female Balb/c mouse assessed as shrinking cytoplasm in kidney at approximately LD50 administered as single ip dose by H and E staining based analysis; format: organism-based; conditions: in vivo
[22] = Acute toxicity in female Balb/c mouse assessed as reduction in survival rate at 65 mg/kg, ip administered as single dose and measured for 7 days; format: organism-based; conditions: in vivo, 168 h, time 7 day
[23] = Acute toxicity in female Balb/c mouse assessed as reduction in survival rate at 82 to 130 mg/kg, ip administered as single dose and measured for 7 days; format: organism-based; conditions: in vivo, 168 h, dose 82-130 mg/kg, time 7 day
[24] = tested on: 4T1; experiment: Antitumor activity against mouse 4T1 cells implanted in female Balb/c mouse assessed as nucleus contraction at 12 micromol/kg, ip administered every other day for 2 weeks by H and E staining based analysis; format: functional, organism-based; conditions: dose 12.0 µmol/kg
[25] = tested on: 4T1; experiment: Antitumor activity against mouse 4T1 cells implanted in female Balb/c mouse assessed as increase in tumor cell lysis at 12 micromol/kg, ip administered every other day for 2 weeks by H and E staining based analysis; format: functional, organism-based; conditions: dose 12.0 µmol/kg

SMILES	Activity [2] [%]	Activity [4]	remaining at 12 h, 10000 µM [5] [%]	Activity [6]	IC50 [7] [µM]	IC50 [8] [µM]	Activity [9]	Activity [10] [%]	half-life at 10000 µM [11] [h]	Activity [12]	Activity [13]	Activity [14]	Activity [15]	Activity [16]	Activity [17]	also measured
CC(C)C[C@H](NC(=O)[C@H](CCCCN)NC(=O)[C@H](CCCCN)NC(=O)[C@H](CC(C)C)NC(=O)[C@H](CC(C)C)NC(=O)[C@H](CCCCN)NC(=O)[C@H](CCCCN)NC(=O)[C@H](CC(C)C)NC(=O)[C@H](CC(C)C)NC(=O)[C@H](CCCCN)NC(=O)[C@H](CCCCN)NC(=O)[C@H](CC(C)C)NC(=O)[C@@H](N)CC(C)C)C(=O)N[C@@H](CCC(=O)O)C(N)=O (H-LLKKLLKKLLKKLE-NH2)	18	Active	28.6	Non-Toxic	9.46	21.4	Non-Toxic	5.69	7.78	Non-Toxic	Dose-Dependent Effect	Active	Active	Non-Toxic	Non-Toxic	Activity [1]: Toxic; Activity [3]: Non-Toxic
CC(C)C[C@H](NC(=O)[C@H](CC(C)C)NC(=O)[C@H](CCCCN)NC(=O)[C@H](CCCCN)NC(=O)[C@H](CC(C)C)NC(=O)[C@H](CC(C)C)NC(=O)[C@H](CCCCN)NC(=O)[C@H](CCCCN)NC(=O)[C@H](CC(C)C)NC(=O)[C@H](CC(C)C)NC(=O)[C@H](CCCCN)NC(=O)[C@H](CCCCN)NC(=O)[C@H](CC(C)C)NC(=O)[C@@H](N)CC(C)C)C(N)=O (H-LLKKLLKKLLKKLL-NH2)	18.9	Active	45.6	Non-Toxic	5.91	4.76	Non-Toxic	3.79	11.1	Non-Toxic	Dose-Dependent Effect	Active	Active	Non-Toxic	Non-Toxic	Activity [18]: Toxic; Activity [19]: Toxic; Activity [20]: Non-Toxic; Activity [21]: Toxic
CC(C)C[C@H](NC(=O)[C@H](CCCCN)NC(=O)[C@H](CCCCN)NC(=O)[C@H](CC(C)C)NC(=O)[C@H](CC(C)C)NC(=O)[C@H](CCCCN)NC(=O)[C@H](CCCCN)NC(=O)[C@H](CC(C)C)NC(=O)[C@H](CC(C)C)NC(=O)[C@H](CCCCN)NC(=O)[C@H](CCCCN)NC(=O)[C@H](CC(C)C)NC(=O)[C@@H](N)CC(C)C)C(=O)N[C@@H](CCCC(=O)O)C(N)=O (H-LLKKLLKKLLKKL[Aad]-NH2)	25.9	Active	31.6	Non-Toxic	7.15	15.7	Non-Toxic	4.4	7.6	Non-Toxic	Dose-Dependent Effect	Active	Active	Non-Toxic	Non-Toxic	Activity [22]: Non-Toxic; Activity [23]: Toxic; Activity [24]: Active; Activity [25]: Active
